Results on nine compounds are retold here after patent publication US20230295234A1, “ANTIMICROBIAL PEPTIDOMIMETICS” (SPEXIS AG, priority 2020, published 2023).

Like-named read-outs stand apart in the source and are kept apart here. Bridge positions count the residues as written; N and C are the ends. Square brackets hold non-standard residues; d marks the D form. Peptide text beside a SMILES is read from it. Pro(4R-NH2) = N[C@H]1CN[C@H](C(=O)O)C1; Pen = CC(C)(S)[C@H](N)C(=O)O; dDab = NCC[C@@H](N)C(=O)O; Dab = NCC[C@H](N)C(=O)O

The subject of data set [1] is human red blood cells (hRBC). Nature of the data set: Hemolysis of human red blood cells. Format: cell-based. The following applies: red cells of human, 1 h. The procedure, abridged: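 PBS-washed human red blood cells (20% v/v) were incubated with peptide at 200 μg/mL for 1 h at 37 °C with shaking. Supernatant OD was read at 540 nm after 8-fold dilution. Hemolysis is expressed as percent of the water control.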

The test system of data set [2] is Escherichia coli ATCC 25922. The following applies: ATCC 25922. The procedure, abridged: (§1)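 Two-fold serial dilutions of peptide, in water with polysorbate 80 (0.002% final), met bacteria adjusted to 0.5 McFarland then diluted to about 5×10^5 CFU/mL. Medium was cation-adjusted Mueller-Hinton II broth; peptide stocks were 1 mg/mL in sterile water.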
For data set [3], the system named is Escherichia coli MCR-1 Af 45. The essentials:
as §1

The test system of data set [4] is Klebsiella pneumoniae SSI3010. The following applies: SSI3010. The procedure, abridged: as §1
The mark [5] stands for this setting: Mueller-Hinton broth II, 18-20 hours at 35° C.

As for `CC[C@H](C)[C@H](NC(=O)[C@@H](NC(=O)[C@@H]1C[C@@H](N)CN1C(=O)[C@@H](NC(=O)[C@@H]1C[C@@H](N)CN1)C(C)C)[C@@H](C)CC)C(=O)N[C@@H](Cc1ccc(O)cc1)C(=O)N[C@@H]1C(=O)N[C@@H](CC(N)=O)C(=O)N[C@@H](CCCNC(=N)N)C(=O)N[C@@H](CCN)C(=O)N[C@@H]([C@@H](C)O)C(=O)N[C@H](CCN)C(=O)N[C@@H](CCCCN)C(=O)N[C@H](C(=O)N[C@@H](CCC(N)=O)C(=O)N[C@@H](CCCNC(=N)N)C(=O)N[C@@H](Cc2ccc(O)cc2)C(=O)O)CSSC1(C)C` [Example 23, Pro((4R)NH2)-Val-Pro((4R)NH2)-Ile-Ile-Tyr-Pen-Asn-Arg-Dab-Thr-^DDab-Lys-Cys-Gln-Arg-Tyr] (H-[Pro(4R-NH2)]V[Pro(4R-NH2)]IIY[Pen]NR[Dab]T[dDab]KCQRY-OH; disulfide 7-14), the “Hemolysis at 0.2 g/L” value in data set [1] stood at 0%. Besides, the “Escherichia coli ATCC 25922 MIC” value in data set [2] was 0.25 µg/mL. In addition, in data set [3] (MCR-1 Af 45), the “Escherichia coli MCR-1 Af 45 MIC” value stood at 0.25 µg/mL. Besides, in data set [4], the “Klebsiella pneumoniae SSI3010 MIC” value is 0.25 µg/mL.

As to `CC[C@H](C)[C@H](NC(=O)[C@@H]1C[C@@H](O)CN1C(=O)[C@@H](NC(=O)[C@@H]1C[C@@H](O)CN1C(=O)[C@H](CCCCN)NC(=O)[C@@H](N)CCCCN)C(C)C)C(=O)N[C@H](C(=O)N[C@@H](Cc1ccc(O)cc1)C(=O)N[C@@H]1C(=O)N[C@@H](CC(N)=O)C(=O)N[C@@H](CCCNC(=N)N)C(=O)N[C@@H](CCN)C(=O)N[C@@H]([C@@H](C)O)C(=O)N[C@H](CCN)C(=O)N[C@@H](CCCCN)C(=O)N[C@H](C(=O)N[C@@H](CO)C(=O)N[C@@H](CCCNC(=N)N)C(=O)N[C@@H](Cc2ccc(O)cc2)C(=O)O)CSSC1(C)C)[C@@H](C)O` [Example 123, Lys-Lys-Hyp-Val-Hyp-Ile-Thr-Tyr-Pen-Asn-Arg-Dab-Thr-^DDab-Lys-Cys-Ser-Arg-Tyr] (HELM PEPTIDE1{K.K.[Hyp].V.[Hyp].I.T.Y.[Pen].N.R.[Dab].T.[NCC[C@@H](N[*:1])C(=O)[*:2]].K.C.S.R.Y}$PEPTIDE1,PEPTIDE1,9:R3-16:R3$$$V2.0), the “Hemolysis at 0.2 g/L” value in data set [1] amounted to 0%. Also, the “Escherichia coli ATCC 25922 MIC” value in data set [2] was 0.125 µg/mL. Besides, the “Escherichia coli MCR-1 Af 45 MIC” value in data set [3] (MCR-1 Af 45) amounted to 0.0625 µg/mL. For the same compound, the “Klebsiella pneumoniae SSI3010 MIC” value in data set [4] was determined as 0.25 µg/mL.

As for `CC[C@H](C)[C@H](NC(=O)[C@@H]1C[C@@H](O)CN1C(=O)[C@@H](N)C(C)C)C(=O)N[C@@H](Cc1ccc(O)cc1)C(=O)N[C@@H](Cc1ccc(O)cc1)C(=O)N[C@@H]1C(=O)N[C@@H](CC(N)=O)C(=O)N[C@@H](CCCNC(=N)N)C(=O)N[C@@H](CCN)C(=O)N[C@@H]([C@@H](C)O)C(=O)N[C@H](CCN)C(=O)N[C@@H](CCCCN)C(=O)N[C@H](C(=O)N[C@@H](CCN)C(=O)N[C@@H](CCCNC(=N)N)C(=O)N[C@@H](Cc2ccc(O)cc2)C(=O)O)CSSC1(C)C` [Example 155] (HELM PEPTIDE1{V.[Hyp].I.Y.Y.[Pen].N.R.[Dab].T.[NCC[C@@H](N[*:1])C(=O)[*:2]].K.C.[Dab].R.Y}$PEPTIDE1,PEPTIDE1,6:R3-13:R3$$$V2.0), in data set [1], the “Hemolysis at 0.2 g/L” value amounted to 0%. Also, in data set [2], the “Escherichia coli ATCC 25922 MIC” value came to 0.125 µg/mL. For the same compound, the “Escherichia coli MCR-1 Af 45 MIC” value in data set [3] (setting [5]) was 0.0625 µg/mL. Further, the “Klebsiella pneumoniae SSI3010 MIC” value in data set [4] is 0.25 µg/mL.

In the case of `CCCC[C@H](NC(=O)[C@H](CCCNC(=N)N)NC(=O)[C@H](CCN)NC(=O)[C@@H]1CSSC[C@H](NC(=O)[C@H](Cc2ccc(O)cc2)NC(=O)[C@@H](NC(=O)[C@@H](NC(=O)[C@@H]2CCCN2C(=O)[C@@H](NC(=O)[C@H](N)CCCCN)C(C)C)[C@@H](C)CC)[C@@H](C)CC)C(=O)N[C@@H](CC(N)=O)C(=O)N[C@@H](CCCNC(=N)N)C(=O)N[C@@H](CCCNC(=N)N)C(=O)N[C@@H]([C@@H](C)O)C(=O)N[C@H](CCN)C(=O)N[C@@H](CCCCN)C(=O)N1)C(=O)O` [Example 1] (HELM PEPTIDE1{[dK].V.P.I.I.Y.C.N.R.R.T.[NCC[C@@H](N[*:1])C(=O)[*:2]].K.C.[Dab].R.[Nle]}$PEPTIDE1,PEPTIDE1,7:R3-14:R3$$$V2.0), the “Hemolysis at 0.2 g/L” value in data set [1] worked out at 0%. In data set [2], the “Escherichia coli ATCC 25922 MIC” value was 0.0625 µg/mL. In data set [3] (MCR-1 Af 45), the “Escherichia coli MCR-1 Af 45 MIC” value turned out to be 0.0625 µg/mL. Further, the “Klebsiella pneumoniae SSI3010 MIC” value in data set [4] stood at 0.125 µg/mL.

For `CC[C@H](C)[C@H](NC(=O)[C@@H]1C[C@@H](O)CN1C(=O)[C@@H](N)C(C)C)C(=O)N[C@H](C(=O)N[C@@H](Cc1ccc(O)cc1)C(=O)N[C@@H]1C(=O)N[C@@H](C)C(=O)N[C@@H](CCCNC(=N)N)C(=O)N[C@@H](CCN)C(=O)N[C@@H]([C@@H](C)O)C(=O)N[C@H](CCN)C(=O)N[C@@H](CCCCN)C(=O)N[C@H](C(=O)N[C@@H](CCN)C(=O)N[C@@H](CCCNC(=N)N)C(=O)N[C@@H](Cc2ccc(O)cc2)C(=O)O)CSSC1(C)C)[C@@H](C)O` [Example 161] (HELM PEPTIDE1{V.[Hyp].I.T.Y.[Pen].A.R.[Dab].T.[NCC[C@@H](N[*:1])C(=O)[*:2]].K.C.[Dab].R.Y}$PEPTIDE1,PEPTIDE1,6:R3-13:R3$$$V2.0), the “Hemolysis at 0.2 g/L” value in data set [1] is reported as 0%. Moreover, the “Escherichia coli ATCC 25922 MIC” value in data set [2] was 0.25 µg/mL. In addition, the “Escherichia coli MCR-1 Af 45 MIC” value in data set [3] (setting [5]) is 0.125 µg/mL. Besides, the “Klebsiella pneumoniae SSI3010 MIC” value in data set [4] was 0.5 µg/mL.

For `CC[C@H](C)[C@H](NC(=O)[C@@H](NC(=O)[C@@H]1CCCN1C(=O)[C@@H](NC(=O)[C@@H]1CCCN1C(=O)[C@H](CCCCN)NC(=O)[C@@H](N)CCCCN)C(C)C)[C@@H](C)CC)C(=O)N[C@@H](Cc1ccc(O)cc1)C(=O)N[C@H]1CSSC[C@@H](C(=O)N[C@@H](CCN)C(=O)N[C@@H](CCCNC(=N)N)C(=O)N[C@@H](Cc2ccc(O)cc2)C(=O)O)NC(=O)[C@H](CCCCN)NC(=O)[C@@H](CCN)NC(=O)[C@H]([C@@H](C)O)NC(=O)CN(CCCN)C(=O)[C@H](CCCNC(=N)N)NC(=O)[C@H](CC(N)=O)NC1=O` [Example 106] (HELM PEPTIDE1{K.K.P.V.P.I.I.Y.C.N.R.[NCCCN(CC(=O)[*:2])[*:1]].T.[NCC[C@@H](N[*:1])C(=O)[*:2]].K.C.[Dab].R.Y}$PEPTIDE1,PEPTIDE1,9:R3-16:R3$$$V2.0; N-terminus assumed), the “Hemolysis at 0.2 g/L” value in data set [1] was found to be 0%. The “Escherichia coli ATCC 25922 MIC” value in data set [2] is 0.25 µg/mL. In data set [3] (MCR-1 Af 45), the “Escherichia coli MCR-1 Af 45 MIC” value was 0.125 µg/mL. For the same compound, the “Klebsiella pneumoniae SSI3010 MIC” value in data set [4] was 0.125 µg/mL.

Regarding `CC[C@H](C)[C@H](NC(=O)[C@@H]1C[C@@H](O)CN1C(=O)[C@@H](N)C(C)C)C(=O)N[C@H](C(=O)N[C@@H](Cc1ccc(O)cc1)C(=O)N[C@@H]1C(=O)N[C@@H](CC(C)C)C(=O)N[C@@H](CCCNC(=N)N)C(=O)N[C@@H](CCN)C(=O)N[C@@H]([C@@H](C)O)C(=O)N[C@H](CCN)C(=O)N[C@@H](CCCCN)C(=O)N[C@H](C(=O)N[C@@H](CCN)C(=O)N[C@@H](CCCNC(=N)N)C(=O)N[C@@H](Cc2ccc(O)cc2)C(=O)O)CSSC1(C)C)[C@@H](C)O` [Example 162] (HELM PEPTIDE1{V.[Hyp].I.T.Y.[Pen].L.R.[Dab].T.[NCC[C@@H](N[*:1])C(=O)[*:2]].K.C.[Dab].R.Y}$PEPTIDE1,PEPTIDE1,6:R3-13:R3$$$V2.0), the “Hemolysis at 0.2 g/L” value in data set [1] stood at 0%. Further, the “Escherichia coli ATCC 25922 MIC” value in data set [2] came to 0.25 µg/mL. In data set [3] (setting [5]), the “Escherichia coli MCR-1 Af 45 MIC” value stood at 0.125 µg/mL. The “Klebsiella pneumoniae SSI3010 MIC” value in data set [4] was determined as 0.25 µg/mL.

For `CC[C@H](C)[C@H](NC(=O)[C@@H](NC(=O)[C@@H]1CCCN1C(=O)[C@@H](NC(=O)CNC)C(C)C)[C@@H](C)CC)C(=O)N[C@@H](Cc1ccc(O)cc1)C(=O)N[C@H]1CSSC[C@@H](C(=O)N[C@@H](CCN)C(=O)N[C@@H](CCCNC(=N)N)C(=O)N[C@@H](Cc2ccc(O)cc2)C(=O)O)NC(=O)[C@H](CCCCN)NC(=O)[C@@H](CCN)NC(=O)[C@H]([C@@H](C)O)NC(=O)[C@H](CCN)NC(=O)[C@H](CCCNC(=N)N)NC(=O)[C@H](CC(N)=O)NC1=O` [Example 30] (HELM PEPTIDE1{[Sar].V.P.I.I.Y.C.N.R.[Dab].T.[NCC[C@@H](N[*:1])C(=O)[*:2]].K.C.[Dab].R.Y}$PEPTIDE1,PEPTIDE1,7:R3-14:R3$$$V2.0), the “Hemolysis at 0.2 g/L” value in data set [1] was found to be 0%. Also, in data set [2], the “Escherichia coli ATCC 25922 MIC” value was found to be 0.125 µg/mL. Also, the “Escherichia coli MCR-1 Af 45 MIC” value in data set [3] (MCR-1 Af 45) was found to be 0.125 µg/mL. The “Klebsiella pneumoniae SSI3010 MIC” value in data set [4] was 0.25 µg/mL.

For `CC[C@H](C)[C@H](NC(=O)[C@@H](NC(=O)[C@@H]1CCCN1C(=O)[C@@H](NC(=O)[C@@H]1CCCN1C(=O)[C@H](CCCCN)NC(=O)[C@@H](N)CCCCN)C(C)C)[C@@H](C)CC)C(=O)N[C@@H](Cc1ccc(O)cc1)C(=O)N[C@H]1CSSC[C@@H](C(=O)N[C@@H](CCN)C(=O)N[C@@H](CCCNC(=N)N)C(=O)N[C@@H](Cc2ccc(O)cc2)C(=O)O)NC(=O)[C@H](CCCCN)NC(=O)[C@@H](CCN)NC(=O)[C@H]([C@@H](C)O)NC(=O)[C@H](CCN)NC(=O)CN(CCCNC(=N)N)C(=O)[C@H](CC(N)=O)NC1=O` [Example 104] (HELM PEPTIDE1{K.K.P.V.P.I.I.Y.C.N.[N=C(N)NCCCN(CC(=O)[*:2])[*:1]].[Dab].T.[NCC[C@@H](N[*:1])C(=O)[*:2]].K.C.[Dab].R.Y}$PEPTIDE1,PEPTIDE1,9:R3-16:R3$$$V2.0; N-terminus assumed), the “Hemolysis at 0.2 g/L” value in data set [1] is 0%. In addition, the “Escherichia coli ATCC 25922 MIC” value in data set [2] was 0.25 µg/mL. Also, the “Escherichia coli MCR-1 Af 45 MIC” value in data set [3] (MCR-1 Af 45) turned out to be 0.125 µg/mL. Also, the “Klebsiella pneumoniae SSI3010 MIC” value in data set [4] turned out to be 0.125 µg/mL.
